# Measurements: patent publication US20260248872A1, “WITHANIA SOMNIFERA COMPOSITION FOR IMPROVING MEMORY AND COGNITION” (ARJUNA NATURAL PRIVATE LIMITED, priority 2023, published 2026)
# Key:
# Assay type in all cases: in vivo, rat
# male SD rats [1] = experiment: Cooks pole climbing test, conditioned avoidance, scopolamine-induced amnesia; settings: scopolamine 0.6 mg/kg i.p., Ashwagandha extract 100 mg/kg, Piracetam 200 mg/kg, Mean ± SEM (n = 6)
# Method: (§1) Twenty-four male SD rats were divided into four groups comprising of 6 rats in each group. The animals were treated as per the following details: • Group 1: Normal control (0.5% Polysorbate 80; 10 ml/kg) • Group 2: Untreated control (Scopolamine; 0.6 mg/kg i.p.) • Group 3: Piracetam—200 mg/kg+Scopolamine 0.6 mg/kg i.p. • Group 4: Ashwagandha extract (Sample 4)—100 mg/kg+Scopolamine 0.6 mg/kg i.p.
# (§2) The vehicle/extract/standard was administered daily for 10 consecutive days. Habituation to swimming was conducted on day 6 of the experiment. Scopolamine was injected 30 minutes after the vehicle/extract/standard to the designated groups. The following behavioural test was conducted at the end of the treatment by using Elevated plus maze apparatus, Y maze model and Cooks pole climbing method.
# Pole climbing test: Rats were trained in such a way that the animal had to climb the pole (shock free zone) within 30 s to avoid a shock. The shock was preceded by a buzzer that lasted for 15 s. The animals were trained to climb the pole at the sound of the buzzer (conditioned avoidance response). At particular intervals, 20 trials were given for each animal and average of the shock avoidance and mistakes were recorded. Trained animals were assayed by conditioned avoidance responses.
# male SD rats [2] = experiment: Y-Maze model, scopolamine-induced amnesia; settings: scopolamine 0.6 mg/kg i.p., Ashwagandha extract 100 mg/kg, Piracetam 200 mg/kg, Mean ± SEM (n = 6)
# Method: as §1, §2
# Y-Maze model—The treatment was started (as per the groups mentioned) for animals from the day 1 and continues up to day 8. […] Briefly, each time animals were placed just inside arm B facing away from the center and allowed to move through apparatus for 8 min, while being monitored by tracking system. […] Each arm entry (defined as all four paws entering arm) was scored and recorded. Animals were returned to home cage and numbers of fecal pellets were counted in the Y maze and data was recorded. […]
# male SD rats [3] = experiment: Elevated plus maze, transfer latency, scopolamine-induced amnesia; settings: scopolamine 0.6 mg/kg i.p., Ashwagandha extract 100 mg/kg, Piracetam 200 mg/kg, 10 days, Mean ± SEM (n = 6)
# Method: as §1, §2
# The elevated plus-maze consists of two open arms and two closed arms (50×10×40 cm each) were elevated to a height of 50 cm. The rats were placed individually at the end of an open arm facing away from the central platform, and the time taken by them to move from there to either of the close arm transfer latency was recorded. […] The rats were allowed to explore the maze for another 10 seconds and then return to the home cage. […] On the 10th day Standard and test substances were administered orally 30 mins before scopolamine injection transfer latency was recorded.
# male SD rats [4] = experiment: Morris Water Maze (MWM), scopolamine-induced amnesia; settings: scopolamine 0.6 mg/kg i.p., Ashwagandha extract 100 mg/kg, Piracetam 200 mg/kg, mean
# Method: as §1, §2
# The MWM consists of a circular pool (180 cm in diameter and 60 cm in height) with a featureless inner surface. The circular pool was filled with water (23±1° C.) up to a height of 40 cm. The pool was divided into four quadrants of equal area. The escape platform was centered in one of the four quadrants. The day before the training experiments (day 6), animals were habituated to swim training for 60 s in the absence of the platform. The animals were treated with vehicle/extract/standard drug for 6 days. On day 7, 30 min after the administration of vehicle/extract/standard drug, scopolamine (0.6 mg/kg, i.p.) was injected. Training session was started 30 min after scopolamine administration. The rats were given four trial sessions each day for four consecutive days (day 7-10), with an inter-trial interval of 15 min, and the escape latencies were recorded. Once the rat located the platform, it was permitted to remain on it for 15 s to observe the vital clues. […] On day 11, the probe test was performed by removing the platform from the pool and a cut-off time of 60 s was kept for exploring. The time spent by the animal in the target quadrant was recorded. The higher value of the time spent in quadrant indicate better retention ability as the animal remembered the position of the platform.
smiles,measurement,setting,value
NC(=O)CN1CCCC1=O [Piracetam],Avoidance/Escape latency,male SD rats [1],6.00 ± 0.89 s
same,Number of Arm entries,male SD rats [2],5.00 ± 0.89
same,Retention Latency,male SD rats [2],2.07 ± 0.46 min
same,Transfer Latency,male SD rats [3],7.00 ± 0.89 s
same,Time to reach escape platform on training days,male SD rats [4]; MWM Day 7,74.25 s
same,Time to reach escape platform on training days,male SD rats [4]; MWM Day 8,47.33 s
same,Time to reach escape platform on training days,male SD rats [4]; MWM Day 9,9.83 s
same,Time to reach escape platform on training days,male SD rats [4]; MWM Day 10,5.25 s
